Structures can show the parent of a compound that is named as a salt. One block for each molecule: values may come before it.
Key:
Type in all cases: physicochemical
[1] = Fluorescence lifetime, time-correlated single photon counting (excitation 500 nm, detection 550 nm); conditions: excited at 500 nm, detection at 550 nm
Procedure: FIG. 2 is a plot showing the fluorescence lifetimes of certain dyes according to the invention. Fluorescence lifetimes of a range of dyes were determined by a time-correlated single photon counting technique using an Edinburgh Instruments FL900 CDT Time-Resolved Fluorometer. Samples were excited at 500 nm using a hydrogen-filled flashlamp. Detection was at 550 nm.

[2] = Fluorescence of the dinitro dye in solvents; conditions: in DMF, DMSO and methanol
[3] = Fluorescence lifetimes of dye and its ovalbumin conjugate in PBS
Procedure: The fluorescence lifetimes of 6-{7,14-dioxo-2,9-disulpho-7,14-dihydro-12H-quino[2,3-b]acridin-5-yl}hexanoic acid and its conjugate with ovalbumin (Conjugate A) was determined in PBS.

Compound: CCCCCCn1c2ccc(Br)cc2c(=O)c2cc3c(cc21)c(=O)c1cc(Br)ccc1n3CCCCCC [2,9-Dibromo-5,12-di-n-hexylquinacridone, 2,9-dibromo-5,12-dihexylquinacridone]
Lifetime ([1]; solvent CH2Cl2/MeOH): 16.9 nsec

Compound: CCOC(=O)CCCCCn1c2ccc(Cl)cc2c(=O)c2cc3c(cc21)c(=O)c1cc(Cl)ccc1n3CCCCCC(=O)OCC [6-{2,9-Dichloro-12-(5-carboxypentyl)-7,14-dioxo-7,14-dihydro-12H-quino[2,3-b]acridin-5-yl}hexanoic acid, diethyl ester]
Lifetime ([1]; solvent MeOH): 22.3 nsec

Compound: CCOC(=O)CCCCCn1c2ccc(F)cc2c(=O)c2cc3c(cc21)c(=O)c1cc(F)ccc1n3CCCCCC(=O)OCC [6-{2,9-Difluoro-12-(5-carboxypentyl)-7,14-dioxo-7,14-dihydro-12H-quino[2,3-b]acridin-5-yl}hexanoic acid, diethyl ester]
Lifetime ([1]; solvent MeOH): 21.4 nsec

Compound: CCOC(=O)CCCCCn1c2ccc(OC)cc2c(=O)c2cc3c(cc21)c(=O)c1cc(OC)ccc1n3CCCCCC(=O)OCC [6-{2,9-Dimethoxy-12-(5-carboxypentyl)-7,14-dioxo-7,14-dihydro-12H-quino[2,3-b]acridin-5-yl}hexanoic acid, diethyl ester]
Lifetime ([1]; solvent EtOH): 14.0 nsec

Compound: CCOC(=O)CCCCCn1c2ccc([N+](=O)[O-])cc2c(=O)c2cc3c(cc21)c(=O)c1cc([N+](=O)[O-])ccc1n3CCCCCC(=O)OCC [6-{2,9-Dinitro-12-(5-carboxypentyl)-7,14-dioxo-7,14-dihydro-12H-quino[2,3-b]acridin-5-yl}hexanoic acid, diethyl ester]
Lifetime ([1]; solvent CH2Cl2): 17.0 nsec
Fluorescence [2]: very weak or is non-fluorescent

Compound: CCOC(=O)CCCCCn1c2ccc(Br)cc2c(=O)c2cc3c(cc21)c(=O)c1cc(Br)ccc1n3CCCCCC(=O)OCC [6-{2,9-dibromo-12-(5-carboxypentyl)-7,14-dioxo-7,14-dihydro-12H-quino[2,3-b]acridin-5-yl}hexanoic acid, diethyl ester]
Lifetime ([1]; solvent water): 18.0 nsec

Compound: CCOC(=O)CCCCCn1c2ccc(C)cc2c(=O)c2cc3c(cc21)c(=O)c1cc(C)ccc1n3CCCCCC(=O)OCC [6-{2,9-dimethyl-12-(5-carboxypentyl)-7,14-dioxo-7,14-dihydro-12H-quino[2,3-b]acridin-5-yl}hexanoic acid, diethyl ester]
Lifetime ([1]; solvent MeOH): 21.9 nsec

Compound: CCn1c2ccc(S(=O)(=O)O)cc2c(=O)c2cc3c(cc21)c(=O)c1cc(S(=O)(=O)O)ccc1n3CCCCCC(=O)O [6-{12-ethyl-7,14-dioxo-2,9-disulpho-7,14-dihydro-12H-quino[2,3-b]acridin-5-yl}hexanoic acid]
Lifetime ([1]; solvent water): 22.7 nsec

The next lines start with the values.

Lifetime ([1]; solvent water): 20.6 nsec
Compound: O=c1c2cc(S(=O)(=O)O)ccc2[nH]c2cc3c(=O)c4cc(S(=O)(=O)O)ccc4[nH]c3cc12 [2,9-Quinacridone disulphonic acid, Quinacridone-2,9-disulphonic acid, (di-potassium salt)]

Lifetime ([1]; solvent CH2Cl2/MeOH): 20.4 nsec
Compound: CCCCCCn1c2ccccc2c(=O)c2cc3c(cc21)c(=O)c1cc(Br)ccc1n3CCCCCC [2-Bromo-5,12-di-n-hexylquinacridone, 2-Bromo-5,12-dihexylquinacridone]

Lifetime ([1]; solvent CH2Cl2/MeOH): 26.5 nsec
Compound: CCCCCCn1c2ccccc2c(=O)c2cc3c(cc21)c(=O)c1ccccc1n3CCCCCC [5,12-Di-n-hexylquinacridone, 5,12-Dihexylquinacridone]

Lifetime ([1]; solvent water): 20.1 nsec
Lifetime (nsec) [3]: 20.1 nsec
Compound: O=C(O)CCCCCn1c2ccc(S(=O)(=O)O)cc2c(=O)c2cc3[nH]c4ccc(S(=O)(=O)O)cc4c(=O)c3cc21 [6-{7,14-Dioxo-2,9-disulpho-7,14-dihydro-12H-quino[2,3-b]acridin-5-yl}hexanoic acid]

Lifetime ([1]; solvent water): 22.1 nsec
Compound: O=c1c2cc3[nH]c4c(S(=O)(=O)O)cc(S(=O)(=O)O)cc4c(=O)c3cc2[nH]c2c(S(=O)(=O)O)cc(S(=O)(=O)O)cc12 [Quinacridone-2,4,9,11-tetrasulphonic acid (tetra-potassium salt)]

Lifetime ([1]; solvent DMSO): 22 nsec
Compound: O=c1c2ccccc2[nH]c2cc3c(=O)c4ccccc4[nH]c3cc12 [Quinacridone]
